Legend:
[1] = system: HEK293 (normal embryonic kidney cells); experiment: Autophagy induction (LC3-II, mRFP-GFP-LC3) in HEK293; type: cell-based
Excerpt: The increased level of LC3-II, a marker of autophagosome was examined by Western blot and immunocytochemistry. The increase of autophagosomes and autolysosomes in HEK293 cells stably expressing mRFP-GFP-LC3, a dual-tag reporter of autophagy, was examined following humanin treatment. In addition, the signaling pathways activated by humanin using a phospho-antibody array in SH-SY5Y cells was investigated. […] Both activation and suppression of autophagy are involved in cancer pathogenesis and treatment, depending on the context.

B16 (melanoma) = experiment: Autophagy induction in B16 (fluorescent microscopy, western blot of LC3-II); type: cell-based, mouse
Leydig cells = experiment: Testosterone of cultured Leydig cells treated with ketoconazole; type: cell-based, rat; details: HN 10 mcg/ml + KTZ 10 mcg/ml, 4 hours
Method: Leydig cells were isolated based on a previously described procedure (Gao, et al., 1996; Klinefelter, et al., 1987; Salva, et al., 2001). Briefly, the testes were decapsulated, and then dissociated with collagenase, dispase, DNase and shaking for 15 min at 34° C. The seminiferous tubules were removed by filtration through 40 μm nylon mesh (BD Falcon, Franklin Lakes, N.J.). Leydig cells were then harvested after centrifugation and purified using a Percoll gradient (GE Healthcare, Uppsala, Sweden) and centrifugation (60 minutes at 20,000 g at 4° C.). Enriched Leydig cells were harvested at densities between 1.065 (red) and 1.075 (blue) g/cm^3 from the percoll gradient. These Leydig cells were washed by diluting the percoll and excluding residual germ cells and other cells using a BSA density gradient with centrifugation. The purity of the Leydig cells was >90%, as determined by histochemical staining for 3β-hydroxysteroid dehydrogenase. The cell viability, as assessed by trypan blue exclusion, was greater than 90%. […]
Testosterone concentrations in plasma, testes, and culture medium were measured by a previously described radioimmunoassay (Lue, et al., 2010) with a minimal detection limit of 0.1 ng/ml. […]

ovaries = type: in vivo; details: day 14; HNG 5 mg/kg/day IP; CP 100 mg/Kg single IP
Method: A mouse mammary cancer model was used which utilizes 4T1 cells transfected with the luciferase gene. Growth and size of 4T1 mammary tumors were detected by bioluminescence imaging (IVIS Luminia II, Perkin Elmer, Waltham, Mass.). Mice (n=5 to 7 per group) were inoculated with 1×10^6 4 T1 cells into the right third mammary gland, and 7 days later they were left untreated or treated with HNG (5 mg/kg/day IP), CP (100 mg/Kg single IP) or HNG+CP for 14 days. Animals were sacrificed and both ovaries were removed from each mouse on day 14 after the start of treatment. Serial 5-micrometer sections were made. Every 5th section was examined and the number of primordial, primary, and secondary follicles counted (Kim S Y, et al., 2013; Bristol-Gould S K, et al., 2006; Roti Roti E C, et al., 2012). In addition, TUNEL staining for apoptotic cells and oocytes was quantified (Perez G I, et al., 1997; Ben-Aharon I, et al., 2010).

germ cells = experiment: HNG on CP-induced germ cell apoptosis in mice, 24 hours (Example 6); type: in vivo, mouse; details: CP 200 mg/kg/BW IP, HNG 5 mg/kg/BW IP
Method: To examine the protective effects of HNG on germ cells, adult mice were treated with vehicle (control); HNG (5 mg/kg/BW, intraperitoneal injection IP); CP (200 mg/kg/BW, IP); and CP+HNG for 24 hours.

sperm = experiment: Cauda epididymal sperm count after multiple doses of CP in mice; type: in vivo, mouse; details: 28 days; HNG 10 mg/kg BW daily subcutaneously; CP 150 mg/kg BW IP, 6 doses at 5-day intervals
Method: (§1) The objective of this study was to investigate whether HNG has protective effect on sperm output after multiple doses of CP in mice. Thirty adult male mice (C57BL/6J) were randomized into 4 groups: 1) 5 as control; 2) 5 received daily subcutaneously injection of HNG (10 mg/kg BW); 3) 10 were given 6 doses of CP (150 mg/kg BW) intraperitoneally at 5-day intervals; 4) 10 received both HNG and CP. All mice were killed at 28 days. Plasma HNG and IGF-1 levels were measured by ELISAs. The cauda epididymal sperm count was performed using a hemocytometer.

IGF-1 = experiment: Plasma IGF-1 levels by ELISA after multiple doses of CP; type: in vivo, mouse; details: 28 days; HNG 10 mg/kg BW daily subcutaneously; CP 150 mg/kg BW IP, 6 doses
Method: as §1

mouse B16 melanoma cells = experiment: Number of metastatic lung tumors, B16 melanoma (Example 9); type: in vivo; details: day 21; CP 200 mg/kg single IP; HNG 5 mg/kg daily IP 14 days
Method: (§2) Methods: Adult male mouse (n=5/group) were seeded with mouse B16 melanoma cells (100,000 cells/mouse) via tail vein on day 1. One week after melanoma cell inoculation, mice were treated either with a single intraperitoneal injection (IP) of CP (200 mg/kg), or daily IP injections of HNG (5 mg/kg), or both for 14 days. Mice were sacrificed at day 21 and lungs were fixed in formaldehyde. Immunohistochemistry was performed on lung metastases with antibodies against phosphorylated-AMPK (p-AMPK), p-4E-BP1 (downstream effector of mTOR) and Ki-67 antigen (a marker of cell proliferation).

[2] = system: phosphorylated-AMPK (p-AMPK); experiment: Immunohistochemistry of lung metastases: p-AMPK; type: in vivo, mouse; details: mean±SD; CP 200 mg/kg single IP; HNG 5 mg/kg daily IP 14 days
Method: as §2

With “MAPRGFSCLLLLTSEIDLPVKRRA [HN, 24-amino acid mitochondrial derived peptide]” the autophagy [1] was “induces autophagy”, the autophagy (B16 (melanoma)) was “induces autophagy” and the “KTZ induced decrease in testosterone production by Leydig cells” value (Leydig cells) was “did not salvage the KTZ induced decrease in testosterone production”.
For `O=P1(N(CCCl)CCCl)NCCCO1` (stereo not drawn) [CP, cyclophosphamide monohydrate], the “ovarian follicles in representative sections” value (ovaries) was “have less secondary, but more atretic follicles”, the “germ cell apoptosis (apoptotic index)” value (germ cells) was “significantly increased germ cell apoptosis in all stages of spermatogenesis” and the “cauda epididymal sperm count” value (sperm) was 0.5±0.1 ×10^6/mg. For the same molecule, the “plasma IGF-1 levels” value (IGF-1) was 182.4 ± 10.5 ng/mL, the “decrease in number of metastatic lung tumors compared to non-treated mice” value (mouse B16 melanoma cells) was roughly 50% and the “percent p-AMPK positive cells in metastatic lung melanoma” value [2] was 11.3±15.6%.

Reference: patent US20150374784A1, “COMPOSITIONS AND METHODS FOR REDUCING GERM CELL DEATH” (Los Angeles Biomedical Research Institute at Harbor-UCLA …, priority 2014, published 2015)
